Read-outs that look alike come from different tables or passages of the source. Numbered stars: 1 amine (or outer) side, 2 acyl side, 3 side chain; on linkers, the order of the positions; unused ones are H or OH. Square brackets hold non-standard residues; d marks the D form. Peptide text beside a SMILES is read from it. ξ: configuration not given here. MeBmt = C/C=C/C[C@@H](C)[C@@H](O)[C@H](NC)C(=O)O; X1 = CN([C@H](SCCCN1CCOCC1)C(=O)[*:2])[*:1]; X2 = CCN(CC)CCCS[C@H](C(=O)[*:2])N(C)[*:1]; X3 = CCN(CC)CCS[C@H](C(=O)[*:2])N(C)[*:1]; NMeIle(3ξ) = CCC(C)[C@H](NC)C(=O)O; NMeL = CN[C@@H](CC(C)C)C(=O)O; NMeV = CN[C@H](C(=O)O)C(C)C; Abu = CC[C@H](N)C(=O)O
Columns and labels:
[1] = assay type: physicochemical
Experimental: The stability of Cyclosporin derivatives were evaluated in methanol at 65° C. and 50° C., and HPLC was used to monitor possible degradation of these compounds (C8, 250 mm, NH4OAc 10 mmol in MeCN and H2O, operation temperature: 65° C.).

[2] = test system: HCV replicon; assay: HCV subgenomic replicon assay (Huh7 ET luc-ubi-neo/ET cells, luciferase end point); assay type: cell-based; settings: read-out: Antiviral activity IC50
Experimental: The anti-HCV activity of cyclosporine derivatives were evaluated in the HCV subgenomic replicon assay. The assay use the cell line ET (luc-ubi-neo/ET), which is a Huh7 human hepatoma cell line harboring an HCV replicon with a stable luciferase (Luc) reporter. HCV RNA replication was assessed by quantifying HCV replicon-derived luciferase activity. The antiviral activity of cyclosporine analogs were evaluated after drug treatment, the EC 50 and EC 90 were determined in subsequent assessments by using the luciferase end point (Krieger, N. et al., 2001, J. Virol. 75:4614-4624; Pietschmann, T. et al., 2002, J. Virol. 76:4008-4021; each of which is incorporated herein by reference).

[3] = Huh7 ET (luc-ubi-neo/ET) cells, HCV replicon-derived luciferase activity

| Compound | Epimerization in MeOH at 50° C. ([1]; 29 hrs) [%] | Epimerization in MeOH at 50° C. ([1]; 77 hrs) [%] | Epimerization in MeOH at 50° C. ([1]; 125 hrs) [%] | other results |
| --- | --- | --- | --- | --- |
| C/C=C/C[C@@H](C)[C@@H](O)[C@H]1C(=O)N[C@@H](CC)C(=O)N(C)[C@H](SCCCN2CCOCC2)C(=O)N(C)[C@@H](C(C)C)C(=O)N[C@@H](C(C)C)C(=O)N(C)[C@@H](CC(C)C)C(=O)N[C@@H](C)C(=O)N[C@H](C)C(=O)N(C)[C@@H](CC(C)C)C(=O)N(C)[C@@H](CC(C)C)C(=O)N(C)[C@@H](C(C)C)C(=O)N1C (cyclo(A[dA][NMeL][NMeL][NMeV][MeBmt][Abu][X1][NMeV]V[NMeL])) | 0 | 0 | 0 | – |
| C/C=C/C[C@@H](C)[C@@H](O)[C@H]1C(=O)N[C@@H](CC)C(=O)N(C)[C@H](SCCN(C)C)C(=O)N(C)[C@@H](CC(C)C)C(=O)N[C@@H](C(C)C)C(=O)N(C)[C@@H](CC(C)C)C(=O)N[C@@H](C)C(=O)N[C@H](C)C(=O)N(C)[C@@H](CC(C)C)C(=O)N(C)[C@@H](CC(C)C)C(=O)N(C)[C@@H](C(C)C)C(=O)N1C [drawing 58, reference compound] | 25.5 | 31.8 | 34.9 | – |
| C/C=C/C[C@@H](C)[C@@H](O)[C@H]1C(=O)N[C@@H](CC)C(=O)N(C)[C@H](SCCN(C)C)C(=O)N(C)[C@@H](CC(C)(C)O)C(=O)N[C@@H](C(C)C)C(=O)N(C)[C@@H](CC(C)C)C(=O)N[C@@H](C)C(=O)N[C@H](C)C(=O)N(C)[C@@H](CC(C)C)C(=O)N(C)[C@@H](CC(C)C)C(=O)N(C)[C@@H](C(C)C)C(=O)N1C [SCY-635, reference compound] | – | – | – | Chemical stability (conversion to epimer), in words [1]: not chemically stable |
| C/C=C/C[C@@H](C)[C@@H](O)[C@H]1C(=O)N[C@@H](CC)C(=O)N(C)[C@H](SCCN(C)C)C(=O)N(C)[C@@H](CC(C)C)C(=O)N[C@@H](C(C)C)C(=O)N(C)[C@@H](CC(C)C)C(=O)N[C@@H](C)C(=O)N[C@H](C)C(=O)N(C)[C@@H](CC(C)C)C(=O)N(C)[C@@H](CC(C)C)C(=O)N(C)[C@@H](C(C)C)C(=O)N1C [drawing 57] | – | – | – | Epimerization in MeOH at 65° C. ([1]; 2 hours): 12%; Epimerization in MeOH at 65° C. ([1]; 4 hours): 19%; Epimerization in MeOH at 65° C. ([1]; 6 hours): 23% |
| [(S)-2-(N,N-Diethylamino)ethylthio-Sar]-3-[N-methylvaline]-4-cyclosporin | – | – | – | IC50 [2, 3]: 3660 nM |
| C/C=C/C[C@@H](C)[C@@H](O)[C@H]1C(=O)N[C@@H](CC)C(=O)N(C)[C@H](SCCN(C)C)C(=O)N(C)[C@@H](CC(C)C)C(=O)N[C@@H](C(C)C)C(=O)N(C)[C@@H](CC(C)C)C(=O)N[C@@H](C)C(=O)N[C@H](C)C(=O)N(C)[C@@H](CC(C)C)C(=O)N(C)[C@@H](CC(C)C)C(=O)N(C)[C@@H](C(C)C)C(=O)N1C [[(R)-2-(N,N-Dimethylamino)ethylthio-Sar]-3-cyclosporin, reference compound] | – | – | – | Chemical stability (conversion to epimer), in words [1]: not stable |
| C/C=C/C[C@@H](C)[C@@H](O)[C@H]1C(=O)N[C@@H](CC)C(=O)N(C)CC(=O)N(C)[C@@H](C(C)C)C(=O)N[C@@H](C(C)C)C(=O)N(C)[C@@H](CC(C)C)C(=O)N[C@@H](C)C(=O)N[C@H](C)C(=O)N(C)[C@@H](CC(C)C)C(=O)N(C)[C@@H](CC(C)C)C(=O)N(C)[C@@H](C(C)C)C(=O)N1C [SDZ-220-384, N-MeVal-4-cyclosporin, reference compound] | – | – | – | IC50 [2, 3]: 170 nM |
| C/C=C/C[C@@H](C)[C@@H](O)[C@H]1C(=O)N[C@@H](CC)C(=O)N(C)[C@H](SCCN(CC)CC)C(=O)N(C)[C@@H](C(C)C)C(=O)N[C@@H](C(C)C)C(=O)N(C)[C@@H](CC(C)C)C(=O)N[C@@H](C)C(=O)N[C@H](C)C(=O)N(C)[C@@H](CC(C)C)C(=O)N(C)[C@@H](CC(C)C)C(=O)N(C)[C@@H](C(C)C)C(=O)N1C [Example 1, [(R)-2-(N,N-Diethylamino)ethylthio-Sar]-3-[N-methylvaline]-4-cyclosporin] (cyclo(A[dA][NMeL][NMeL][NMeV][MeBmt][Abu][X3][NMeV]V[NMeL])) | – | – | – | IC50 ([2]; Hepatitis C virus, Huh7 ET): 50 nM |
| C/C=C/C[C@@H](C)[C@@H](O)[C@H]1C(=O)N[C@@H](CC)C(=O)N(C)[C@H](SCCN(CC)CC)C(=O)N(C)[C@@H](C(C)CC)C(=O)N[C@@H](C(C)C)C(=O)N(C)[C@@H](CC(C)C)C(=O)N[C@@H](C)C(=O)N[C@H](C)C(=O)N(C)[C@@H](CC(C)C)C(=O)N(C)[C@@H](CC(C)C)C(=O)N(C)[C@@H](C(C)C)C(=O)N1C (stereo partly drawn) [Example 4, [(R)-2-(N,N-Diethylamino)ethylthio-Sar]-3-[N-methylisoleucine]-4-cyclosporin] (cyclo(A[dA][NMeL][NMeL][NMeV][MeBmt][Abu][X3][NMeIle(3ξ)]V[NMeL])) | – | – | – | IC50 ([2]; Hepatitis C virus, Huh7 ET): 40 nM |
| C/C=C/C[C@@H](C)[C@@H](O)[C@H]1C(=O)N[C@@H](CC)C(=O)N(C)CC(=O)N(C)[C@@H]([C@@H](C)CC)C(=O)N[C@@H](C(C)C)C(=O)N(C)[C@@H](CC(C)C)C(=O)N[C@@H](C)C(=O)N[C@H](C)C(=O)N(C)[C@@H](CC(C)C)C(=O)N(C)[C@@H](CC(C)C)C(=O)N(C)[C@@H](C(C)C)C(=O)N1C [SDZ-NIM-811, N-MeIle-4-Cyclosporin, reference compound] | – | – | – | IC50 ([2]; Hepatitis C virus, Huh7 ET): 150 nM |
| C/C=C/C[C@@H](C)[C@@H](O)[C@H]1C(=O)N[C@@H](CC)C(=O)N(C)[C@H](SCCCN2CCOCC2)C(=O)N(C)[C@@H](C(C)CC)C(=O)N[C@@H](C(C)C)C(=O)N(C)[C@@H](CC(C)C)C(=O)N[C@@H](C)C(=O)N[C@H](C)C(=O)N(C)[C@@H](CC(C)C)C(=O)N(C)[C@@H](CC(C)C)C(=O)N(C)[C@@H](C(C)C)C(=O)N1C (stereo partly drawn) [Example 6, [(R)-3-(N-Morpholino)propylthio-Sar]-3-[N-methylisoleucine]-4-cyclosporin] (cyclo(A[dA][NMeL][NMeL][NMeV][MeBmt][Abu][X1][NMeIle(3ξ)]V[NMeL])) | – | – | – | IC50 ([2]; Hepatitis C virus, Huh7 ET): 50 nM |

The next lines start with results.

| Epimerization in MeOH at 50° C. ([1]; 29 hrs) [%] | Epimerization in MeOH at 50° C. ([1]; 77 hrs) [%] | Epimerization in MeOH at 50° C. ([1]; 125 hrs) [%] | Compound | other results |
| --- | --- | --- | --- | --- |
| 0 | 0 | 0 | C/C=C/C[C@@H](C)[C@@H](O)[C@H]1C(=O)N[C@@H](CC)C(=O)N(C)[C@H](SCCCN2CCOCC2)C(=O)N(C)[C@@H](C(C)CC)C(=O)N[C@@H](C(C)C)C(=O)N(C)[C@@H](CC(C)C)C(=O)N[C@@H](C)C(=O)N[C@H](C)C(=O)N(C)[C@@H](CC(C)C)C(=O)N(C)[C@@H](CC(C)C)C(=O)N(C)[C@@H](C(C)C)C(=O)N1C (some centres unmarked) (cyclo(A[dA][NMeL][NMeL][NMeV][MeBmt][Abu][X1][NMeIle(3ξ)]V[NMeL])) | – |
| 0 | 0 | 0 | C/C=C/C[C@@H](C)[C@@H](O)[C@H]1C(=O)N[C@@H](CC)C(=O)N(C)[C@H](SCCCN(CC)CC)C(=O)N(C)[C@@H](C(C)C)C(=O)N[C@@H](C(C)C)C(=O)N(C)[C@@H](CC(C)C)C(=O)N[C@@H](C)C(=O)N[C@H](C)C(=O)N(C)[C@@H](CC(C)C)C(=O)N(C)[C@@H](CC(C)C)C(=O)N(C)[C@@H](C(C)C)C(=O)N1C (cyclo(A[dA][NMeL][NMeL][NMeV][MeBmt][Abu][X2][NMeV]V[NMeL])) | – |
| 0 | 0 | 0 | C/C=C/C[C@@H](C)[C@@H](O)[C@H]1C(=O)N[C@@H](CC)C(=O)N(C)[C@H](SCCCN(CC)CC)C(=O)N(C)[C@@H](C(C)CC)C(=O)N[C@@H](C(C)C)C(=O)N(C)[C@@H](CC(C)C)C(=O)N[C@@H](C)C(=O)N[C@H](C)C(=O)N(C)[C@@H](CC(C)C)C(=O)N(C)[C@@H](CC(C)C)C(=O)N(C)[C@@H](C(C)C)C(=O)N1C (some centres unmarked) (cyclo(A[dA][NMeL][NMeL][NMeV][MeBmt][Abu][X2][NMeIle(3ξ)]V[NMeL])) | – |
| 4.4 | 10.4 | 16.2 | C/C=C/C[C@@H](C)[C@@H](O)[C@H]1C(=O)N[C@@H](CC)C(=O)N(C)[C@H](SCCN(CC)CC)C(=O)N(C)[C@@H](C(C)CC)C(=O)N[C@@H](C(C)C)C(=O)N(C)[C@@H](CC(C)C)C(=O)N[C@@H](C)C(=O)N[C@H](C)C(=O)N(C)[C@@H](CC(C)C)C(=O)N(C)[C@@H](CC(C)C)C(=O)N(C)[C@@H](C(C)C)C(=O)N1C (some centres unmarked) [reference compound] (cyclo(A[dA][NMeL][NMeL][NMeV][MeBmt][Abu][X3][NMeIle(3ξ)]V[NMeL])) | – |
